According to paper PMC11032326, “A practical synthesis of nitrone-derived C5a-functionalized isofagomines as protein stabilizers to treat Gaucher disease” (Communications Chemistry, 2024):
Each block holds one molecule with its values, some of them ahead of it.

How the values were obtained:
[1] = molecular target: T1, rh-GCase (Homo sapiens, UniProt P04062); assay: rh-GCase inhibition study (in-situ screening and IC50 of resynthesized compounds); assay type: biochemical; conditions: for IC50: resynthesized compounds, read-out: IC50 against rh-GCase
T1 sequence (P04062 40-536): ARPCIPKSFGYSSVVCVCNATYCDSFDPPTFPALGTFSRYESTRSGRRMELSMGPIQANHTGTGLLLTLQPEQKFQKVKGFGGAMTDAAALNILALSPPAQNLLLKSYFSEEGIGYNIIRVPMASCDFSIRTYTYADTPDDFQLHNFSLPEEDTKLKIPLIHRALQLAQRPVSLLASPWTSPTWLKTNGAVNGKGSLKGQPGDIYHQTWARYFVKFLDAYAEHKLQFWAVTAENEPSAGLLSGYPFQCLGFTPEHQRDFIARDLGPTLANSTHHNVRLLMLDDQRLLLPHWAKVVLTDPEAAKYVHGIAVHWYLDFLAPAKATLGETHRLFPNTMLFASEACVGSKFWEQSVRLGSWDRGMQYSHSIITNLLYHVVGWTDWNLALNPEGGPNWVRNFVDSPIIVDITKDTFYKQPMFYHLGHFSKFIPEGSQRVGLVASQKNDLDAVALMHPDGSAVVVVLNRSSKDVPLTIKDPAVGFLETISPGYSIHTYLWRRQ

[2] = molecular target: T1, rh-GCase; assay: Thermal stability shift assay (fluorescence-based thermal denaturation); assay type: binding; conditions: compared to Tm of rh-GCase without small molecule; for In-vitro rh-GCase stabilization ΔTm: 100 µM, pH 7.0; for ΔTm at 100 µM: pH 7, 100 µM, read-out: In-vitro rh-GCase stabilization ΔTm
Description: The stability of rh-GCase was assessed using a modified fluorescence thermal stability assay on a Rotor-Gene system in a neutral pH buffer (phosphate buffer, pH 7.0). […] A thermal gradient was applied to the plate at a rate of 1 °C/minute, during which time the fluorescence of SYPRO Orange was continuously monitored. The fluorescence intensity at each temperature was normalized to the maximum fluorescence after complete thermal denaturation.

[3] = tested on: cellular α-glucosidase activity in GM00372 cells; assay: Intact cell α-glucosidase activity study in Gaucher fibroblasts; assay type: cell-based, human; conditions: 0–500 nM
Description: GM00372 cells were seeded into 96-well culture plates. […] The final concentration of DMSO was <0.5% which had no cytotoxicity or glucosidase inhibition. The cells were incubated for 5 days and the medium for DMSO-treated cells or compound-treated cells was renewed every 3 days. The enzyme activity assay was performed after removing the medium supplemented with compounds. Compounds were evaluated at all concentrations in triplicate. The monolayers were washed with Dulbecco’s PBS solution (Gibco pH 7.4). PBS (16 μL) and acetate buffer (0.2 M, 16 μL, pH 4.0) were added to each well. The reaction was started by the addition of 4-methylumbelliferyl β-D-glucoside (4 mM, 25 μL, Sigma) to each well, followed by incubation at 37 °C for 2 h. The reaction was stopped by lysing the cells with glycine buffer (0.2 M, 200 μL, pH 10.8). The fluorescence was also measured by the release of 4-methylumbelliferone with an excitation wavelength of 355 nm and an emission wavelength of 460 nm (SpectraMax M5, Molecular Devices). The fluorescence of untreated cells was compared with those treated with compounds. Among the resynthesized compounds, compound 16 was further subjected to the same experiments described above thoroughly at the concentration of 0–500 nM. […]

[4] = tested on: p.Leu444Pro Gaucher fibroblasts (GM00877); assay: rh-GCase activity in Gaucher patient fibroblasts (co-administration), GM00877; assay type: cell-based, human; conditions: rh-GCase 0.17 μM, 16 at 1 μM, 24 h
Description: (§1) Gaucher patient fibroblasts (GM00372 and GM00877) (2 × 10^4 cells) were seeded in 48-well culture plates and incubated overnight. […] After 24 h, the medium was refreshed without rh-GCase and SMPSs, then the cells were incubated for another 24 h. Cells were harvested by trypsinization and the cell pellets were washed twice with PBS and lysed with lysis buffer containing 0.1% Triton X-100, 50 mM Tris-HCl, and 150 mM NaCl. GCase activity assay was performed by mixing lysate (10 μl) and substrate (90 μL of 4 mM 4-methylumbelliferyl β-D-glucopyranoside) in 0.1 M NaOAc and incubating at 37 °C for 1 h. Reactions were terminated by adding 0.2 N glycine-NaOH, pH 10.7. The fluorescence was detected at excitation/emission wavelengths 355/460 nm.

[5] = tested on: β-glucosidase activity in p.Asn370Ser/p.Leu29Alafs*18 Gaucher fibroblasts (GM00372); assay: Intact cell β-glucosidase activity study (chaperone activity) in Gaucher fibroblasts; assay type: cell-based, human; conditions: compared to untreated cells (=1)
Description: GM00372 cells were seeded into 96-well culture plates. […] The final concentration of DMSO was <0.5% which had no cytotoxicity or glucosidase inhibition. The cells were incubated for 5 days and the medium for DMSO-treated cells or compound-treated cells was renewed every 3 days. The enzyme activity assay was performed after removing the medium supplemented with compounds. Compounds were evaluated at all concentrations in triplicate. The monolayers were washed with Dulbecco’s PBS solution (Gibco pH 7.4). PBS (16 μL) and acetate buffer (0.2 M, 16 μL, pH 4.0) were added to each well. The reaction was started by the addition of 4-methylumbelliferyl β-D-glucoside (4 mM, 25 μL, Sigma) to each well, followed by incubation at 37 °C for 2 h. The reaction was stopped by lysing the cells with glycine buffer (0.2 M, 200 μL, pH 10.8). The fluorescence was also measured by the release of 4-methylumbelliferone with an excitation wavelength of 355 nm and an emission wavelength of 460 nm (SpectraMax M5, Molecular Devices). The fluorescence of untreated cells was compared with those treated with compounds. Among the resynthesized compounds, compound 16 was further subjected to the same experiments described above thoroughly at the concentration of 0–500 nM. Likewise, 4-methylumbelliferyl α-D-glucoside (4 mM, 25 μL, Sigma) was used to evaluate the cellular α-glucosidase activity in GM00372 cells treated with or without compound 16 (0–500 nM).

[6] = tested on: Gaucher p.Asn370Ser fibroblasts (GM00372); assay: rh-GCase activity in Gaucher patient fibroblasts (co-administration), GM00372; assay type: cell-based, human; conditions: rh-GCase 0.17 μM, 16 at 1 μM, 24 h
Description: as §1

[7] = Fluorescence-based thermal shift assay of pegylated rh-GCases; assay type: physicochemical; conditions: rh-GCase modified by MeO-PEG-NHS (Mw 5000 Da), molar ratio reagent to enzyme
Text: Supplementary Figure 1. Characterization of rh-GCase modified by MeO-PEG-NHS (Mw 5000 Da) with different molar ratios of reagent to the enzyme. (A) SDS-PAGE analysis of the pegylated rh-GCases indicated the acceptable effectiveness of the modification reaction, but reacting rh-GCase with longer MeO-PEG-NHS reagents resulted the incomplete pegylation (data not shown). (B) The […]
(also on this page, place not known: rh -GCase MeO -PEG-NHS rh -GCase MeO -PEG-NHS 40 50 60 70 0 20 40 60 80 100 Mono-PEG5k (50 eq) Mono-PEG5k (100 eq) Temperature (oC) Unfolded protein (%)) […]

Molecule: O=C(NC[C@@H]1NC[C@@H](O)[C@H](O)[C@H]1CO)c1cccc2c1C(=O)c1ccccc1-2 [Compound 27]
- IC50 [1]: 68.3 ± 22 nM

Molecule: O=C(Cc1ccc(Br)cc1)NC[C@H]1NC[C@@H](O)[C@H](O)[C@H]1CO [Compound 22]
- IC50 [1]: 250 ± 49 nM

Molecule: COc1ccc(C(=O)NC[C@@H]2NC[C@@H](O)[C@H](O)[C@H]2CO)c(OC)c1 [Compound 26]
- IC50 [1]: 200 ± 32 nM

Molecule: COc1ccc(C(=O)NC[C@H]2NC[C@@H](O)[C@H](O)[C@H]2CO)c(OC)c1 [Compound 20]
- IC50 [1]: 45.6 ± 13.7 nM

Molecule: OC[C@H]1CNC[C@@H](O)[C@@H]1O [IFG, isofagomine]
- ΔTm at 100 µM [2]: 9.6 °C
- activity enhancement on co-administration with rh-GCase compared to rh-GCase alone [4]: 6 fold
- β-glucosidase activity enhancement in p.Asn370Ser cells ([5]; 1000 nM): 1.7 fold
- activity enhancement on co-administration with rh-GCase compared to rh-GCase alone [6]: 7 fold

Molecule: Cc1ccc(C(=O)NC[C@H]2NC[C@@H](O)[C@H](O)[C@H]2CO)c([N+](=O)[O-])c1 [Compound 18]
- IC50 [1]: 191 ± 43 nM

Molecule: O=C(NC[C@@H]1NC[C@@H](O)[C@H](O)[C@H]1CO)c1ccc2ccccc2c1 [Compound 23]
- IC50 [1]: 63.6 ± 9.5 nM

B1: rh-GCase: recombinant human GCase used for enzyme replacement therapy (protein, UniProt P04062 40-536, looked up)
Lysosomal acid …: T1 sequence (P04062 40-536)
- Tm [7]: 49.1 ± 0.1 oC

B2: Mono-PEG5k (50 eq): rh-GCase modified by MeO-PEG-NHS (Mw 5000 Da), 50 eq of reagent (conjugate, UniProt P04062 40-536, looked up)
Lysosomal acid …: T1 sequence (P04062 40-536)
modifications: PEG 5 kDa, 50 eq
notes: rh-GCase modified by MeO-PEG-NHS (Mw 5000 Da), 50 eq of reagent
- Tm [7]: 51.7 ± 0.3 oC

B3: Mono-PEG5k (100 eq): rh-GCase modified by MeO-PEG-NHS (Mw 5000 Da), 100 eq of reagent (conjugate, UniProt P04062 40-536, looked up)
Lysosomal acid …: T1 sequence (P04062 40-536)
modifications: PEG 5 kDa, 100 eq
notes: rh-GCase modified by MeO-PEG-NHS (Mw 5000 Da), 100 eq of reagent
- Tm [7]: 50.3 ± 0.4 oC

Now from value to molecule, other results behind:

- IC50 [1]: 4 ± 0.7 nM
- In-vitro rh-GCase stabilization ΔTm [2]: 14.2 °C
- ΔTm at 100 µM [2]: 13.2 °C
Molecule: O=C(/C=C/c1cccc(Br)c1)NC[C@@H]1NC[C@@H](O)[C@H](O)[C@H]1CO [Compound 16]
- influence on cellular α-glucosidase activity [3]: without impairing cellular α-glucosidase activity
- activity enhancement on co-administration with rh-GCase compared to rh-GCase alone [4]: 9.1 fold
- β-glucosidase activity enhancement in p.Asn370Ser cells ([5]; 10 nM): 2.5 fold
- β-glucosidase activity enhancement in p.Asn370Ser cells ([5]; 25 nM): up to 2.7 fold
- activity enhancement on co-administration with rh-GCase compared to rh-GCase alone [6]: 13 fold

- IC50 [1]: 3.7 ± 0.4 nM
- fold greater inhibitory potency than IFG ([1]; rh-GCase IC50 compared with IFG): 50 fold
Molecule: O=C(NCC1NCC(O)C(O)C1CO)c1ccc2ccccc2c1 (stereo not shown) [S1]

- IC50 [1]: 30 ± 7.8 nM
- ΔTm at 100 µM [2]: 11.3 °C
Molecule: C/C(=C\c1ccccc1)C(=O)NC[C@@H]1NC[C@@H](O)[C@H](O)[C@H]1CO [Compound 15]
- β-glucosidase activity enhancement in p.Asn370Ser cells ([5]; 100 nM): 1.8 fold

- IC50 [1]: 26.4 ± 8 nM
Molecule: COc1ccc(Br)cc1/C=C/C(=O)NC[C@@H]1NC[C@@H](O)[C@H](O)[C@H]1CO [Compound 25]

- IC50 [1]: 5.1 ± 1.1 nM
- In-vitro rh-GCase stabilization ΔTm [2]: 13.2 °C
- ΔTm at 100 µM [2]: 14.2 °C
Molecule: O=C(Cc1ccc(Br)cc1)NC[C@@H]1NC[C@@H](O)[C@H](O)[C@H]1CO [Compound 17]
- β-glucosidase activity enhancement in p.Asn370Ser cells ([5]; 100 nM): 1.7 fold

- IC50 [1]: 11 ± 0.7 nM
Molecule: Cc1ccc(C(=O)NC[C@@H]2NC[C@@H](O)[C@H](O)[C@H]2CO)c([N+](=O)[O-])c1 [Compound 24]

- IC50 [1]: 7.7 ± 1.5 nM
Molecule: COc1ccc(Br)cc1/C=C/C(=O)NC[C@H]1NC[C@@H](O)[C@H](O)[C@H]1CO [Compound 19]

- IC50 [1]: 25.9 ± 11.1 nM
Molecule: O=C(NC[C@H]1NC[C@@H](O)[C@H](O)[C@H]1CO)c1cccc2c1C(=O)c1ccccc1-2 [Compound 21]
